One series can be described thus: Solubility at pH 6.8. In kind it is physicochemical. As to conditions: pH 6.8, aqueous buffer. On the procedure:
The solubility of Forms I and II of idelalisib is very low. At pH 6.8 a solubility of about 70 mg/L was measured.

The conditions of series [1]: pressure conditions typical for tablet preparation; cited from earlier work.
Series [2] in a line: Solubility in water at 25°C. Format: physicochemical.
Series [3] can be described thus: Thermal and humidity stability (XRPD analysis). Format: physicochemical. How it is done: XRPD diffractograms were obtained with an X'Pert PRO diffractometer (PANalytical, Almelo, The Netherlands) equipped with a theta/theta coupled goniometer in transmission geometry, programmable XYZ stage with well plate holder, Cu K-alpha radiation source (wavelength 0.15418 nm) with a focusing mirror, a 0.5° divergence slit, a 0.02° soller slit collimator and a 0.5° anti-scattering slit on the incident beam side, a 2 mm anti-scattering slit, a 0.02° soller slit collimator, a Ni-filter and a solid state PIXcel detector on the diffracted beam side. The diffractogram was recorded at room temperature (25°C) at a tube voltage of 40 kV, tube current of 40 mA, applying a step size of 0.013° 2-Theta with 40 sec per step in the angular range of 2° to 40° 2-Theta. A typical precision of the 2-Theta values is in the range of ± 0.2° 2-Theta. Thus, a diffraction peak that appears for example at 9.4° 2-Theta can appear between 9.2 and 9.6° 2-theta on most X-ray diffractometers under standard conditions. 50 mg of pure amorphous idelalisib obtained as disclosed in Example 4b) were exposed to 98% relative humidity at 25°C for 5 days. […] 50 mg of pure amorphous idelalisib obtained as disclosed in Example 4b) were exposed to 75% relative humidity at 40°C for 5 days. […] 50 mg of pure amorphous idelalisib obtained as disclosed in Example 4b) were thermally stressed at 120°C and 50% relative humidity for 5 days in a sealed vial.

The nature of series [4]: Compression stability (KBr pellet die, XRPD analysis). In kind it is physicochemical. As to conditions: compressed for 4.5 days at 740 MPa. On the procedure: XRPD diffractograms were obtained with an X'Pert PRO diffractometer (PANalytical, Almelo, The Netherlands) equipped with a theta/theta coupled goniometer in transmission geometry, programmable XYZ stage with well plate holder, Cu K-alpha radiation source (wavelength 0.15418 nm) with a focusing mirror, a 0.5° divergence slit, a 0.02° soller slit collimator and a 0.5° anti-scattering slit on the incident beam side, a 2 mm anti-scattering slit, a 0.02° soller slit collimator, a Ni-filter and a solid state PIXcel detector on the diffracted beam side. The diffractogram was recorded at room temperature (25°C) at a tube voltage of 40 kV, tube current of 40 mA, applying a step size of 0.013° 2-Theta with 40 sec per step in the angular range of 2° to 40° 2-Theta. A typical precision of the 2-Theta values is in the range of ± 0.2° 2-Theta. Thus, a diffraction peak that appears for example at 9.4° 2-Theta can appear between 9.2 and 9.6° 2-theta on most X-ray diffractometers under standard conditions. 50 mg of pure amorphous idelalisib obtained as disclosed in Example 4b) were added to a KBr pellet die and compressed for 4.5 days at 740 MPa.

Converted amounts (≈) assume the structure as drawn.

In “Solubility at pH 6.8”, `CC[C@H](Nc1ncnc2[nH]cnc12)c1nc2cccc(F)c2c(=O)n1-c1ccccc1` [Form I, (S)-2-(1-(9H-purin-6-ylamino)propyl)-5-fluoro-3-phenylquinazolin-4(3H)-one] showed a solubility of around 70 µg/mL (≈ 168 µM). Moreover, in series [1], the “phase conversion under pressure” value is “easily converts at least partially to Form II”.
Compound `CC[C@H](Nc1ncnc2[nH]cnc12)c1nc2cccc(F)c2c(=O)n1-c1ccccc1` [pure amorphous idelalisib, (S)-2-(1-(9H-purin-6-ylamino)propyl)-5-fluoro-3-phenylquinazolin-4(3H)-one] had a solubility in series [2] of around 415 µg/mL (≈ 999 µM). Besides, the “change of the amorphous form by XRPD after storage” value in series [3] (75% relative humidity at 40°C for 5 days) is on record as “no change of the amorphous form”; in series [3] (98% relative humidity at 25°C for 5 days), “no change of the amorphous form”; in series [3] (120°C and 50% relative humidity for 5 days in a sealed vial), “no change of the amorphous form”. In series [4], the “change in the amorphous phase by XRPD after compression” value was “no change in the amorphous phase”.

By solubility is commonly meant the concentration that dissolves in the medium under given conditions. Low readings indicate little dissolved substance, high ones much dissolved substance.

The values are drawn from patent EP3048104A1, “AMORPHOUS AND CRYSTALLINE FORMS OF IDELALISIB AND PROCESS FOR FORMING THE SAME” (Sandoz AG, priority 2015, dated 2016).
